Marks after values point to notes of the source that are not given here.
Assays:
[1] = tested on: P. falciparum strain D6; assay: [3H]-hypoxanthine growth inhibition assay, P. falciparum D6; type: cell-based; details: Plasmodium falciparum; P. falciparum D6 (sensitive to chloroquine and pyrimethamine), [3H]-hypoxanthine incorporation; read-out: D6 IC50
Summary of the method: (§1)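 Parasites cultured in human O Rh+ RBCs in RPMI-1640-LPLF (low PABA and folic acid) with 10% human plasma, pH 6.9, 37° C, 5% O2/5% CO2/90% N2. Sorbitol-synchronised ring-stage cultures started at 1% parasitaemia; growth measured as [3H]-hypoxanthine incorporation in hypoxanthine-free medium. Compound stocks 1 mM in DMSO.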

[2] = tested on: P. falciparum strain W2; assay: [3H]-hypoxanthine growth inhibition assay, P. falciparum W2; type: cell-based; details: Plasmodium falciparum; P. falciparum W2 (resistant to chloroquine and pyrimethamine), [3H]-hypoxanthine incorporation; read-out: W2 IC50
Summary of the method: as §1

[3] = tested on: Plasmodium berghei (KBG-173 strain); assay: Plasmodium berghei assay in vivo (modified Thompson Test) in CD-1 mice; details: bid on days 3, 4 and 5; for Average Days Survival: 31 day experiment
Protocol: In vivo antimalarial activity was tested in male or female Charles River CD-1 mice that were 4-5 weeks old and weighed 20-25 g They were housed in groups of 3 or 4 in standard plastic cages with wire tops, Bed-o-Cob® bedding, 12 hr/day of light, and maintained at 75° F. They were fed a standard Ralston Purina mouse chow and the cages and bottles were changed twice a week. Test compounds were ground in a mortar and pestle and diluted with enough vehicle to give a volume of 10 mL/kg of mouse weight. The oral doses were prepared in 0.5% hydroxyethylcellulose (Union Carbide Corp. WP 4400)/0.1% Tween-80 (Fisher Scientific T164-500). The amount of drug was calculated on the free base weight. The mice were infected intraperitoneally on day 0 with 5×10^4 erythrocytes parasitized with Plasmodium berghei (KBG-173 strain) from a donor mouse having a parasitemia between 5-10%. On days 3, 4 and 5 the test compounds were administered bid, spaced 6 hr apart, by oral gavage to the mice. Activity was measured by survival, with full activity defined as all animals living at day 31. Partial activity is defined as days of increased survival versus the infected non-treated controls. This in vivo model is a modification of the Thompson Test. For further description see Ager, A. L, Jr. Rodent Malaria Models. In Handbook of Experimental Pharmacology: Antimalarial Drugs. 1. 68/1; Peters, W., Richards, W. H. G., Eds.: Springer-Verlag: Berlin, 1984, pp. 231-33.

[4] = Plasmodium berghei, 744 h, 4 mg/kg/day oral, CD-1 mice infected with P. berghei, read-out: Number of mice alive at day 31 (converted)
[5] = Plasmodium berghei, 744 h, 8 mg/kg/day oral, CD-1 mice infected with P. berghei, read-out: Number of mice alive at day 31 (converted)
[6] = Plasmodium berghei, 744 h, 16 mg/kg/day oral, CD-1 mice infected with P. berghei, read-out: Number of mice alive at day 31 (converted)
[7] = Plasmodium berghei, 744 h, 32 mg/kg/day oral, CD-1 mice infected with P. berghei, read-out: Number of mice alive at day 31 (converted)
[8] = Plasmodium berghei, 744 h, 64 mg/kg/day oral, CD-1 mice infected with P. berghei, read-out: Number of mice alive at day 31 (converted)

| Structure (SMILES) | IC50 [1] [nM] | IC50 [2] [nM] | Average Days Survival ([3]; 2 mg/kg/day oral) [days] | Average Days Survival ([3]; 4 mg/kg/day oral) | Average Days Survival ([3]; 8 mg/kg/day oral) | Average Days Survival ([3]; 16 mg/kg/day oral) | Average Days Survival ([3]; 32 mg/kg/day oral) | Average Days Survival ([3]; 64 mg/kg/day oral) | responders at 2 mg/kg ([3]; Plasmodium berghei, 744 h, 2 mg/kg/day oral, CD-1 mice infected with P. berghei, read-out: Number of mice alive at day 31 (converted)) [%] | responders at 4 mg/kg [3, 4] [%] | responders at 8 mg/kg [3, 5] [%] | responders at 16 mg/kg [3, 6] [%] | responders at 32 mg/kg [3, 7] [%] | responders at 64 mg/kg [3, 8] [%] |
| --- | --- | --- | --- | --- | --- | --- | --- | --- | --- | --- | --- | --- | --- | --- |
| CC(C)(C)NCc1cc(C(C)(C)C)cc(-c2ccc(C(F)(F)F)nc2)c1O.Cl [Example 1, 4-(tert-Butyl)-2-((tert-butylamino)methyl)-6-(6-(trifluoromethyl)pyridin-3-yl)phenol hydrochloride] | 13 | 4 | >27 | >31* days | >31* days | >31* days | >31* days | >31* days | 71.4 | 100 | 100 | 100 | 100 | 100 |
| CC(C)(C)NCc1cc(C(C)(C)C)cc(-c2cnc(C(F)(F)F)nc2)c1O.Cl [Example 33, 4-(tert-Butyl)-2-((tert-butylamino)methyl)-6-(2-(trifluoromethyl)pyrimidin-5-yl)phenol hydrochloride] | 10 | 3 |  | >30 days | >31* days | >31* days | >31* days | >31* days |  | 85.7 | 100 | 100 | 100 | 100 |
| CC(C)(C)NCc1cc(C(C)(C)C)cc(-c2cnc(C(F)(F)F)c(F)c2)c1O.Cl [Example 34, 4-(tert-Butyl)-2-((tert-butylamino)methyl)-6-(5-fluoro-6-(trifluoromethyl)pyridin-3-yl)phenol hydrochloride] | 8 | 2 |  | >28 days | >31* days | >31* days | >31* days | >31* days |  | 85.7 | 100 | 100 | 100 | 100 |

Source: patent US9409893B2, “Heteroaryl derivatives and uses thereof” (Jacobus Pharmaceutical Company, Inc., priority 2012, dated 2016)
